Experimental findings from US8088757B2, “Betulinol derivatives as anti-cancer agents” (priority 2004, dated 2012) are described below.

Where two headings read alike, the source gives them in different places.

The nature of data set [1]: Tolerability of solubilized drug in mice with prostate cancer cell xenografts. It is filed as in vivo. Particulars: 22% ethanol, 2×10^−3 mol per liter of betulonic acid.
Data set [2] deals with LNCaP. Put plainly: MTT cytotoxicity assay, LNCaP prostate cancer cells. It is filed as cell-based, human. Particulars: for inhibition at 25 µM / inhibition at 2.5 µM / inhibition at 0.25 µM: Homo sapiens, read-out: Growth Inhibition %; for inhibition at 0.25 µM: 2.5 × 10^−7 M. On the procedure:
The human prostate cancer LNCaP, PC-3, and DU-145 cell lines, as well as human fibroblast cell line, were obtained from the American Type Culture Collection (“ATCC”) and maintained in RPMI-1640, F-12k, and MEM mediums, respectively, supplemented with 10% FBS. Cell lines were maintained at 37° C. under a humidified atmosphere and 5% CO2 for testing of the cytotoxicity of betulinol derivatives. The cytotoxicity assay was performed using MTT assay according to the instructions of ATCC protocol. Cells 1×10^5 in 0.1 ml/well were plated in 96-well culture plates (Costar) and incubated with a different dilution of betulinol derivatives for 24, 48, and 72 hours. Ten μl of 3-[4,5-dimethylthiazol-2-yl]-2,5 diphenyl tetrazolium bromide was added into each well at the end of each incubation period. The reaction product, formazan, was dissolved in the detergent, and the absorbance was read at 540 nm (Ref).
However, these compounds were not tested on prostate cancer LNCaP cell line by NCI. […] The anti-tumor activity of the compounds was determined at three doses and the total growth inhibition kill effect as pertinent of the control at 24, 48, and 72 hours as presented in Table 11.
Background: Tetrazolium assays rely on reduction of a dye to a coloured formazan, in cell work by metabolically active cells.

Regarding `C=C(C)C1CCC2(C(=O)NCCCCC(NC(=O)OC(C)(C)C)C(=O)O)CC[C@]3(C)[C@H](CC[C@@H]4[C@@]5(C)CCC(=O)C(C)(C)[C@@H]5CC[C@]43C)C12` (stereo partly drawn) [Boc-Monomer], the tolerability result in data set [1] is given as “well tolerated”.
Regarding `C=C(C)C1CCC2(CO)CC[C@]3(C)[C@H](CC[C@@H]4[C@@]5(C)CCC(O)C(C)(C)[C@@H]5CC[C@]43C)C12` (stereo partly drawn) [Compound 1, Betulinol], the inhibition (commonly the percentage by which the read-out fell short of the control) at 25 µM was found to be 47.2% in data set [2] (24 hours, 2.5 × 10^−5 M) and 31% in data set [2] (48 hours, 2.5 × 10^−5 M). The inhibition at 2.5 µM in data set [2] (24 hours, 2.5 × 10^−6 M) was determined as 11.9%; in data set [2] (48 hours, 2.5 × 10^−6 M), 13.8%. Further, the inhibition at 0.25 µM in data set [2] (24 hours) came to 8.24%; in data set [2] (48 hours), 10.6%.
Consider `C=C(C)[C@@H]1CC[C@]2(C(=O)O)CC[C@]3(C)[C@H](CC[C@@H]4[C@@]5(C)CC[C@H](O)C(C)(C)[C@@H]5CC[C@]43C)[C@@H]12` [Compound 2, Betulinic Acid], for which, in data set [2] (24 hours, 2.5 × 10^−5 M), the “Growth Inhibition %” value was 41.0%.
`C=C(C)[C@@H]1CC[C@]2(C=O)CC[C@]3(C)[C@H](CC[C@@H]4[C@@]5(C)CC[C@H](O)C(C)(C)[C@@H]5CC[C@]43C)[C@@H]12` [Compound 3, Betulin Aldehyde]: the “Growth Inhibition %” value in data set [2] (24 hours, 2.5 × 10^−6 M) is reported as 11.0%.
